What was measured:
FLT3L-DCs = assay: FLT3L-DC direct-priming of OT-I T cells in vitro with OT-I peptide; type: cell-based, mouse; settings: 1 μg/mL OT-I peptide
Method: Then antigen-obtained DCs were purified and co-cultured with naïve T cells from OT-1 mice at a ratio of 1:10 for 96 h. The co-culture medium was 1640 RPMI contains 10% fetal bovine with or without 1 μg/mL OT-1 (OVA 257-264) peptide. For ex vivo DCs cross-presentation assay, four types of DCs (migration CD11b DC, migration CD103′ DC, resident CD11b DC and resident CD8^+ DC) were sorted in draining lymph node from SAA treated B16-OVA bearing mice at day 12. These DCs were co-cultured with OT-1 naïve T cells in the ratio of 1:10 for 96 hours with or without OT-1 peptide. Supernatant IFN-γ production was detected via CBA assay.
Dendritic cells can activate T cells through cross-priming and/or direct-priming. In direct-priming process, DCs could stimulate T cells via surface co-stimulatory molecules such as CD80/CD86 or cytokines related with T cell activation. To evaluate whether the direct priming function was also affected after SAA administration, bone marrow derived cells (wildtype or Ythdf1 gene deficient) were cultured with FLT3L for 9 days to get FLT3L-DC and these DCs were treated with 10 μM SAA for 12 hours, then, FLT3L-DCs were co-cultured with necrotic B16-OVA tumor cell for 6 hours. […] IFN-γ production was assessed by IFN-γ cytometric bead array. […] Then, IFN-γ production was assessed by IFN-γ cytometric bead array.

YTHDF1 (361-559) = target: T1, YTHDF1 (361-559) (Homo sapiens, UniProt Q9BYJ9); assay: Microscale thermophoresis (MST) assay; type: binding
T1 construct: GST (N, cleaved yes); made in house; host or cells: E. coli BL21 (DE3)
T1 sequence (Q9BYJ9 with tags, fused parts or gaps): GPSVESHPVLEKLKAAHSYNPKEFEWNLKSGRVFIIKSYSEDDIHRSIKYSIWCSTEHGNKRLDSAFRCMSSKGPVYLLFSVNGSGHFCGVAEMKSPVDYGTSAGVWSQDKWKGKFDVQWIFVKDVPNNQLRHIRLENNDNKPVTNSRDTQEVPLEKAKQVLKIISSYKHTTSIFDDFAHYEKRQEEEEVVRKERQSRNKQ
Method: Microscale Thermophoresis (MST) assay was performed on MiscroScale Thermophoresis instrument (NanoTemper Technologies) at room temperature using the label-free method. […] And the YTHDF1 (361-559) was diluted to 4 μM with MST buffer. […] Before measuring, the mixture was centrifuged at 13000 rpm for 10 minutes at 4° C. At last, the samples were collected by Monolith NT™ Automated Label Free capillaries (NanoTemper Technologies) and the measurement was started. […] Affinity Analysis Software v2.3 (NanoTemper Technologies).

YTHDF1 mutant F480A = target: T2, YTHDF1 mutant F480A (Homo sapiens, UniProt Q9BYJ9, F480A); assay: FP assay with YTHDF1 mutant F480A; type: binding
T2 construct: GST (N, cleaved yes); made in house; host or cells: E. coli BL21 (DE3)
T2 sequence (Q9BYJ9 with tags, fused parts or gaps F480A): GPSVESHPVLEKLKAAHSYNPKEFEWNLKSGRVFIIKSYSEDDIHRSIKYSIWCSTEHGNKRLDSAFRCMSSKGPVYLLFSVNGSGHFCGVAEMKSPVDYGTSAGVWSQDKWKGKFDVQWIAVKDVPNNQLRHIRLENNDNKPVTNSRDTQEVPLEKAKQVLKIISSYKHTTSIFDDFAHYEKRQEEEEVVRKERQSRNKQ
Method: The protein YTHDF1 (361-559) (SEQ ID NO: 2) and its mutants (SEQ ID NOs: 4-13) were cloned into pGEx-6P-1 vector (obtained from YouBio Co, Ltd, Catalog NO: VT1258), and the His-YTHDF1 (361-559) (SEQ ID NO: 3) used in AlphaScreen Assay was cloned into modified pET28a vector (obtained from YouBio Co, Ltd, Catalog NO: VT1207). The vectors were transformed into E. coli BL21 (DE3) cells and cultured at 37° C. When OD value reached 0.6˜0.8, 1 mM Isopropyl-β-D-thiogalactopyranoside was added to overexpress the protein at 16° C. overnight. […] Then, the proteins were further purified via cation exchange (HiTrap SP, GE Healthcare) and finally through a Superdex 75 10/300 column (GE Healthcare). At last, the purified YTHDF1(361-559) and the mutants were kept in buffer which contains 20 mM Hepes (pH 7.4) and 200 mM NaCl. For His-YTHDF1 (361-559), the protein was purified via Ni-NTA chromatography (HisTrap FF, GE Healthcare), followed by cation exchange and Superdex 75 10/300 column in sequence. And the obtained protein was kept in the buffer with the same ingredients.
All of the YTHDF1 (361-559), the 5′-FAM labeled m^6A-containing mRNA (5′-FAM-[…] (m^6A) CUGUG-3′, SEQ ID NO: 14) and the candidate compounds were diluted with assay buffer (20 mM Hepes (pH 7.4), 50 mM NaCl, 0.01% (v/v) tween 20, 5% (v/v) glycerol). […] At last, the mixtures were measured by Envision Readers (PerkinElmer). […]

Kd (YTHDF1 (361-559)): 4.7 µM
SMILES: O=C(/C=C/c1ccc(O)c(O)c1/C=C/c1ccc(O)c(O)c1)O[C@H](Cc1ccc(O)c(O)c1)C(=O)O [SAA, Salvianolic Acid A]
FLT3L-DC direct-priming function (IFN-γ production) (FLT3L-DCs): could not enhance
inhibitory activity against mutant binding to m6A versus wildtype (YTHDF1 mutant F480A): significantly weaker than that against wildtype YTHDF1
